Literature values, collected in paper PMC5600712 (ACS chemical biology, 2017).

Assays:
proteasome = settings: α,β-epoxyketone proteasome inhibitor
class I HDACs = settings: class I compared with class II HDACs

Compound | covalent adduct formation with proteasome (proteasome) | selectivity of binding, class I versus class II HDACs (class I HDACs)
CC(C)C[C@H](NC(=O)[C@H](CCc1ccccc1)NC(=O)CN1CCOCC1)C(=O)N[C@@H](Cc1ccccc1)C(=O)N[C@@H](CC(C)C)C(=O)[C@@]1(C)CO1 [carfilzomib] | forms a covalent adduct to block proteasome function | 
HC toxin |  | tighter binding of these inhibitors to class I HDACs
